Measurements reported in the supplement of paper PMC10307832.

Assays:
Test in all cases: relative viability (nuclei count vs DMSO), 5 days (fraction); higher = more cells survive
17-AAG + Trametinib = compound: C=CCNC1=C2C[C@@H](C)C[C@H](OC)[C@H](O)[C@@H](C)/C=C(\C)[C@H](OC(N)=O)[C@@H](OC)/C=C\C=C(/C)C(=O)NC(=CC1=O)C2=O [17-AAG] + CC(=O)Nc1cccc(-n2c(=O)n(C3CC3)c(=O)c3c(Nc4ccc(I)cc4F)n(C)c(=O)c(C)c32)c1 [Trametinib] (partner 0.02 µM)
Summary of the method: (§1)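 Each reported value is a median over duplicate plates. It expresses relative viability: treated-well nuclei count divided by vehicle-well nuclei count. Lung cancer cell lines in 1536-well plates were dosed by pin tool a day after seeding, alone with one drug or with a fixed anchor-drug dose plus five library-drug doses (not always all listed) in √10 steps, and nuclei were counted after 5 days.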

17-AAG + OSI-027 = compound: C=CCNC1=C2C[C@@H](C)C[C@H](OC)[C@H](O)[C@@H](C)/C=C(\C)[C@H](OC(N)=O)[C@@H](OC)/C=C\C=C(/C)C(=O)NC(=CC1=O)C2=O [17-AAG] + COc1cccc2cc(-c3nc([C@H]4CC[C@H](C(=O)O)CC4)n4ncnc(N)c34)[nH]c12 [OSI-027] (partner 0.5 µM)
Summary of the method: as §1

17-AAG + Lapatinib = compound: C=CCNC1=C2C[C@@H](C)C[C@H](OC)[C@H](O)[C@@H](C)/C=C(\C)[C@H](OC(N)=O)[C@@H](OC)/C=C\C=C(/C)C(=O)NC(=CC1=O)C2=O [17-AAG] + CS(=O)(=O)CCNCc1ccc(-c2ccc3ncnc(Nc4ccc(OCc5cccc(F)c5)c(Cl)c4)c3c2)o1 [Lapatinib] (partner 2 µM)
Summary of the method: as §1

17-AAG + Linsitinib = compound: C=CCNC1=C2C[C@@H](C)C[C@H](OC)[C@H](O)[C@@H](C)/C=C(\C)[C@H](OC(N)=O)[C@@H](OC)/C=C\C=C(/C)C(=O)NC(=CC1=O)C2=O [17-AAG] + C[C@]1(O)C[C@@H](c2nc(-c3ccc4ccc(-c5ccccc5)nc4c3)c3c(N)nccn32)C1 [Linsitinib] (partner 1 µM)
Summary of the method: as §1

Cell Line	relative viability (17-AAG + Trametinib; first compound 0.00128 µM)	relative viability (17-AAG + Trametinib; first compound 0.004048 µM)	relative viability (17-AAG + Trametinib; first compound 0.0128 µM)	relative viability (17-AAG + Trametinib; first compound 0.04048 µM)	relative viability (17-AAG + Trametinib; first compound 0.128 µM)	relative viability (17-AAG + OSI-027; first compound 0.00128 µM)	relative viability (17-AAG + OSI-027; first compound 0.004048 µM)	relative viability (17-AAG + OSI-027; first compound 0.0128 µM)	relative viability (17-AAG + OSI-027; first compound 0.04048 µM)	relative viability (17-AAG + OSI-027; first compound 0.128 µM)	relative viability (17-AAG + Lapatinib; first compound 0.00128 µM)	relative viability (17-AAG + Lapatinib; first compound 0.004048 µM)	relative viability (17-AAG + Lapatinib; first compound 0.0128 µM)	relative viability (17-AAG + Lapatinib; first compound 0.04048 µM)	relative viability (17-AAG + Lapatinib; first compound 0.128 µM)	relative viability (17-AAG + Linsitinib; first compound 0.00128 µM)	relative viability (17-AAG + Linsitinib; first compound 0.004048 µM)	relative viability (17-AAG + Linsitinib; first compound 0.0128 µM)	relative viability (17-AAG + Linsitinib; first compound 0.04048 µM)	relative viability (17-AAG + Linsitinib; first compound 0.128 µM)
LU99A	0.549	0.538	0.508	0.384	0.134	0.333	0.332	0.282	0.217	0.141	0.885	0.965	0.323	0.288	0.141	0.484	0.671	0.449	0.24	0.174
LXF-289	0.667	0.661	0.686	0.58	0.145	0.823	0.779	0.53	0.104	0.0657	0.907	0.874	0.694	0.449	0.152	0.964	0.954	0.924	0.52	0.179
NCI-H23	0.336	0.344	0.246	0.148	0.116	0.623	0.646	0.365	0.179	0.121	0.933	0.882	0.233	0.204	0.131	0.554	0.511	0.486	0.174	0.157
NCI-H322M	0.512	0.547	0.452	0.536	0.403	0.465	0.364	0.329	0.285	0.271	0.616	0.612	0.65	0.522	0.294	1.04	0.938	0.99	0.484	0.334
NCI-H358	0.128	0.0832	0.0659	0.0673	0.0679	0.768	0.41	0.0521	0.0586	0.0417	0.504	0.324	0.162	0.137	0.121	0.817	0.892	0.148	0.161	0.131
NCI-H460	0.202	0.0484	0.0114	0.0258	0.0229	0.62	0.413	0.0464	0.0193	0.0168	0.962	0.451	0.016	0.0135	0.0137	0.771	0.0998	0.0141	0.0124	0.009
NCI-H520	0.706	0.673	0.468	0.154	0.129	0.305	0.268	0.27	0.202	0.152	0.797	0.654	0.396	0.132	0.112	0.987	0.856	0.728	0.144	0.122
NCI-H596	0.841	0.852	0.767	0.704	0.308	0.742	0.713	0.854	0.519	0.274	1.19	1.06	1.17	0.996	0.818	1.12	0.93	0.943	0.82	0.783
NCI-H647	0.402	0.29	0.0765	0.0969	0.0756	0.585	0.553	0.187	0.0899	0.0977	1.15	0.386	0.0807	0.0919	0.0634	1.16	0.596	0.18	0.118	0.074
NCI-H650	0.983	1.03	0.934	0.551	0.224	0.502	0.602	0.494	0.426	0.258	0.982	1.05	0.62	0.333	0.215	0.865	0.908	0.788	0.314	0.177
NCI-H661	0.588	0.533	0.522	0.295	0.23	0.713	0.672	0.636	0.261	0.21	0.445	0.436	0.47	0.416	0.259	0.558	0.569	0.516	0.45	0.259
NCI-H727	0.356	0.409	0.319	0.237	0.221	0.602	0.573	0.506	0.359	0.24	0.775	0.765	0.829	0.238	0.342	0.312	0.252	0.176	0.179	0.22
NCI-H838	0.536	0.487	0.126	0.115	0.1	0.408	0.369	0.246	0.147	0.124	1.02	0.878	0.141	0.121	0.0916	0.942	0.97	0.756	0.17	0.142
NCI-H1355	0.466	0.446	0.363	0.241	0.167	0.44	0.467	0.272	0.185	0.166	0.97	0.979	0.776	0.223	0.159	0.946	0.747	0.776	0.725	0.286
NCI-H1395	1.09	0.984	0.807	0.448	0.368	0.634	0.619	0.467	0.377	0.277	0.903	1.12	0.485	0.406	0.417	1.12	1.1	0.705	0.469	0.383
NCI-H1437	0.582	0.562	0.32	0.291	0.195	0.877	0.836	0.656	0.186	0.123	0.825	0.7	0.247	0.151	0.0848	0.995	0.788	0.787	0.128	0.112
NCI-H1651	0.781	0.855	0.838	0.77	0.604	0.749	0.685	0.683	0.395	0.143	0.841	0.874	0.519	0.168	0.146	1.09	1.01	0.975	0.227	0.177
NCI-H1666	0.858	0.826	0.639	0.575	0.481	0.875	0.782	0.52	0.395	0.335	0.682	0.595	0.234	0.261	0.219	0.764	0.554	0.27	0.253	0.224
NCI-H1734	0.759	0.633	0.576	0.245	0.15	0.602	0.709	0.415	0.263	0.144	0.952	0.934	0.764	0.579	0.141	0.87	0.838	0.878	0.308	0.18
NCI-H1755	0.808	0.716	0.705	0.741	0.23	0.773	0.69	0.602	0.197	0.114	1.06	0.972	0.772	0.27	0.165	1.03	1.01	0.934	0.825	0.39
NCI-H1792	0.483	0.337	0.216	0.0858	0.056	0.691	0.765	0.619	0.574	0.273	0.783	1.02	0.704	0.638	0.115	0.481	0.619	0.449	0.391	0.372
NCI-H1793	0.36	0.318	0.273	0.18	0.142	0.252	0.234	0.156	0.124	0.125	0.447	0.434	0.35	0.217	0.156	0.824	0.712	0.51	0.236	0.153
NCI-H1915	0.293	0.302	0.23	0.103	0.0681	0.606	0.605	0.482	0.088	0.0931	0.883	1.06	0.894	0.571	0.0701	1.05	1.08	1.14	1.07	0.83
NCI-H1944	0.452	0.368	0.379	0.24	0.155	0.406	0.403	0.321	0.184	0.164	0.795	0.889	0.646	0.482	0.169	1.25	1.22	1.16	0.872	0.319
NCI-H1975	0.319	0.358	0.207	0.124	0.147	0.654	0.446	0.133	0.147	0.115	0.872	0.739	0.256	0.166	0.11	1.03	0.725	0.31	0.164	0.139
NCI-H1993	0.61	0.464	0.49	0.313	0.387	0.586	0.636	0.593	0.394	0.41	0.767	0.76	0.627	0.45	0.451	0.764	0.718	0.711	0.573	0.5
NCI-H2009	0.276	0.269	0.252	0.218	0.0853	0.635	0.654	0.618	0.376	0.0937	1.16	0.954	0.816	0.424	0.0895	1.14	1.2	1.01	0.775	0.328
NCI-H2023	0.557	0.266	0.0867	0.0826	0.0692	0.328	0.221	0.0577	0.0589	0.0633	0.872	0.675	0.0806	0.106	0.0805	0.595	0.501	0.103	0.117	0.0914
NCI-H2085	0.608	0.607	0.604	0.594	0.314	0.845	0.859	0.763	0.521	0.29	0.784	0.802	0.812	0.875	0.527	0.9	0.844	1.02	0.849	0.533
NCI-H2087	0.206	0.213	0.184	0.115	0.124	0.483	0.325	0.124	0.15	0.0762	0.823	0.808	0.477	0.238	0.135	0.886	0.797	0.344	0.248	0.197
